The text below walks through data of US8017128B2, “Cosmetic active ingredient composed of arginine ferrulate and a microalgae extract and its uses” (priority 2006, dated 2011).

Test [1] has as its system thioredoxin reductase (TrxR). Particulars: donor.
Procedure: A volume corresponding to 50 μg of proteins of each cell extract is incubated with a mixture of HEPES, 80 mM pH 7.5, 0.9 mg/ml of NADPH, EDTA 6 mM, 2 mg/ml of insulin and 10 μM of Trx of E. coli, at 37° C. for 20 minutes in a final volume of 120 μL. The reaction is stopped by the addition of 500 μL of DTNB (dithio-bis-nitrobenzoic acid) (0.4 mg/ml) in guanidine hydrochloride 6 M/Tris-Cl 0.2 M (pH 8.0). A control sample containing everything except the Trx is incubated and treated in the same way as each sample.
The absorbance at 412 nm is measured and the value of the control subtracted from the value of the corresponding absorbance of the sample.
A standard curve is prepared using TrxR from purified calf thymus, with a defined specific activity.
The subject of a further test is thioredoxin. Conditions: donor; NAC (10 mM) alone.
Another test has as its system glycated proteins. Nature of the test: Reduction in glycated proteins in treated cells. Format: cell-based.

The structures appear in SMILES notation.

In the case of `C=CC=O` [Acrolein], the “TrxR activity, % change vs control” value in test [1] (Acrolein 25 μM alone) is on record as −37%. For the same compound, in test [1] (Acrolein 25 μM in the culture medium, alone), the “TrxR Activity” value is reported as 130.8 ± 11.4 ng of TrxR/mg of total proteins.
Take `CC(=O)N[C@@H](CS)C(=O)O` [NAC, N-Acetyl-cysteine]: in the test with thioredoxin, the “Thioredoxin Level” value was 59.8 ± 8.1 ng of Trx/mg of total proteins and the “Thioredoxin level, % change vs control” value is listed as −32%.
Regarding `COc1cc(/C=C/C(=O)O)ccc1O` [arginine ferulate], the “content required to inhibit 50% of the formation of glycated proteins in the cells” value in the test with glycated proteins is 0.005%-0.02%.
